Reference: ChEMBL document CHEMBL1649238, “Natural polymorphisms of human immunodeficiency virus type 1 integrase and inherent susceptibilities to a panel of integrase inhibitors” (2009)

Legend:
Type in all cases: functional
[1] = system: Human immunodeficiency virus 1; assay: Antiviral activity against HIV1 R-6 harboring integrase D10E, E11D, S17N, A23V, L28I, P30A, V72I, L101I, S119T, T122I, A124T, V201I, N222D, N232D, S230G, D253E, N254G mutant gene infected in human TZM-bl cells assessed as beta-galactosidase expression after 48 hrs by microplate luminometry relative to HIV1 R7/3 expressing wild type integrase enzyme
[2] = system: Human immunodeficiency virus 1; assay: Antiviral activity against HIV1 G-4 harboring integrase K7R, D10E, S39C, L74I, K156R, K215N, T218I, N232D, L234I mutant gene infected in human TZM-bl cells assessed as beta-galactosidase expression after 48 hrs by microplate luminometry relative to HIV1 R7/3 expressing wild type integrase enzyme
[3] = system: Human immunodeficiency virus 1; assay: (§1) Antiviral activity against HIV1 B-28 harboring integrase D10E, R20K, S39C, V72I, A124N, T125V, V201I, N232D mutant gene infected in human TZM-bl cells assessed as beta-galactosidase expression after 48 hrs by microplate luminometry relative to HIV1 R7/3 expressing wild type integrase enzyme
[4] = system: Human immunodeficiency virus 1; assay: (§2) Antiviral activity against HIV1 G-8 harboring integrase D10E, L101I, S119T, A124T, M154L, V201I, N232D, S283G mutant gene infected in human TZM-bl cells assessed as beta-galactosidase expression after 48 hrs by microplate luminometry relative to HIV1 R7/3 expressing wild type integrase enzyme
[5] = system: Human immunodeficiency virus 1; assay: Antiviral activity against HIV1 A-6 harboring integrase D10E, V72I, A124T, M154I, R199K, V201I, N232D mutant gene infected in human TZM-bl cells assessed as beta-galactosidase expression after 48 hrs by microplate luminometry relative to HIV1 R7/3 expressing wild type integrase enzyme
[6] = system: Human immunodeficiency virus 1; assay: Antiviral activity against HIV1 harboring integrase T97A mutant infected in human TZM-bl cells assessed as beta-galactosidase expression after 48 hrs by microplate luminometry relative to HIV1 R7/3 expressing wild type integrase enzyme relative to HIV1 R7/3 expressing wild type integrase enzyme
[7] = system: Human immunodeficiency virus 1; assay: Antiviral activity against HIV1 K-2 harboring integrase D10E, R20K, I113V, A124T, K188R, V201I, T206S, N232D, D278G mutant gene infected in human TZM-bl cells assessed as beta-galactosidase expression after 48 hrs by microplate luminometry relative to HIV1 R7/3 expressing wild type integrase enzyme
[8] = system: Human immunodeficiency virus 1; assay: Antiviral activity against HIV1 harboring integrase N155H mutant infected in human TZM-bl cells assessed as beta-galactosidase expression after 48 hrs by microplate luminometry relative to HIV1 R7/3 expressing wild type integrase enzyme relative to HIV1 R7/3 expressing wild type integrase enzyme
[9] = system: Human immunodeficiency virus 1; assay: as §1, with “R-31” for “B-28”, “E11D, V32I, V37I,” for “R20K, S39C,”, “V72I, L101I, T112I,” for “V72I,”, “T125A, K173R, A205S, Q216H, N222K, S230N,” for “T125V, V201I,”
[10] = system: Human immunodeficiency virus 1; assay: as §2, with “F-15” for “G-8”, “K42T, A124N, T125A, V126L,” for “L101I, S119T, A124T,”, “V201I, T206S,” for “V201I,”, “V281S” for “S283G”
[11] = system: Human immunodeficiency virus 1; assay: Antiviral activity against HIV1 B-27 harboring integrase D10E, R20K, S39C, V72I, A124N, T125M, V201I, N232D mutant gene infected in human TZM-bl cells assessed as beta-galactosidase expression after 48 hrs by microplate luminometry relative to HIV1 R7/3 expressing wild type integrase enzyme
[12] = system: Human immunodeficiency virus 1; assay: as §1, with “N-19” for “B-28”, “E11D, D25E, V31I, I113V, S119G,” for “R20K, S39C, V72I,”, “V151I,” for “T125V,”

SMILES	Ratio EC50 [1]	Ratio EC50 [2]	Ratio EC50 [3]	Ratio EC50 [4]	Ratio EC50 [5]	Ratio EC50 [6]	Ratio EC50 [7]	Ratio EC50 [8]	Ratio EC50 [9]	Ratio EC50 [10]	Ratio EC50 [11]	Ratio EC50 [12]
O=C(NCc1ccc(F)cc1)c1nc(N2CCCCS2(=O)=O)c2cccnc2c1O	1.175	1.3	0.973	0.488	0.863	6.067	0.468	12.647	1.268	0.505	1.306	1.416
CN(C)C(=O)C(=O)NC(C)(C)c1nc(C(=O)NCc2ccc(F)cc2)c(O)c(=O)n1C	0.644	0.847	0.766	0.286	0.946	2	0.394	0.78	1.005	0.329	0.592	0.998
CN(C)C(=O)C(=O)N(C)c1nc(C(=O)NCc2ccc(F)cc2)c(O)c2ncccc12	0.412	0.643	0.673	0.515	0.836	3.767	0.461	2.692	1.589	0.33	0.966	0.927
CNC(=O)c1cc(F)ccc1CNC(=O)c1nc(N2CCCCS2(=O)=O)c2cccnc2c1O	1.067	0.565	0.767	0.425	0.5	0.865	0.448	4.295	0.995	0.656	0.627	0.456
